Results taken from ChEMBL document CHEMBL1144613, “Substituted acyclic sulfonamides as human cannabinoid-1 receptor inverse agonists” (Bioorg Med Chem Lett, 2007).

Tests used:
Cannabinoid receptor 1 [1] = target: Cannabinoid receptor 1 (Homo sapiens, UniProt P21554); assay: biochemical; type: cell-based, CHO
Cannabinoid receptor 2 = Cannabinoid receptor 2 (Homo sapiens, UniProt P34972); assay: Displacement of [3H]CP-55940 from human recombinant CB2 receptor expressed in CHO cells; type: cell-based
Cannabinoid receptor 2, sequence (P34972 whole entry): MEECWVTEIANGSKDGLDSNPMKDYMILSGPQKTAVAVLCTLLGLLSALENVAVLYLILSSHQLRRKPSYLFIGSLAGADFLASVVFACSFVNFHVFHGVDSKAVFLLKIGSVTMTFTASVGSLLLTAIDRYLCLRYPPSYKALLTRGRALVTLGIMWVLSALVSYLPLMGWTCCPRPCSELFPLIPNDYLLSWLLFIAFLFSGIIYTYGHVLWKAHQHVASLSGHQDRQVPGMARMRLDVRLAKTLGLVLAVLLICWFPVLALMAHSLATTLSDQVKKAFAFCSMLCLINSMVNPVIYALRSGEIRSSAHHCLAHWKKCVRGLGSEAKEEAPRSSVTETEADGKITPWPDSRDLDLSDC

[2] = Cmax in rat at 1 mg/kg, iv or 2 mg/kg, po; type: ADME, organism-based; details: in vivo
[3] = Oral bioavailability in rat at 1 mg/kg, iv or 2 mg/kg, po; type: ADME, organism-based; details: in vivo
Rattus norvegicus = assay: Inhibition of CP-55940-induced hypothermia in rat at 3 mg/kg, iv after 30 mins; type: functional; details: 0.5 h
[4] = Ratio of drug level in brain to plasma in rat at 1 mg/kg, iv at 2 hrs; type: ADME, organism-based; set-up: dose 1 mg/kg, route intravenous
[5] = Brain concentration in rat at 1 mg/kg, iv at 1 h; type: ADME, organism-based; set-up: dose 1 mg/kg, route intravenous; details: read-out: Activity
[6] = Ratio of drug level in brain to plasma in rat at 1 mg/kg, iv at 0.25 h; type: ADME, organism-based; set-up: dose 1 mg/kg, route intravenous
[7] = Ratio of drug level in brain to plasma in rat at 1 mg/kg, iv at 1 h; type: ADME, organism-based; set-up: dose 1 mg/kg, route intravenous
Cannabinoid receptor 1 [8] = target: Cannabinoid receptor 1 (Rattus norvegicus, UniProt P20272); assay: Binding affinity at rat CB1 receptor
Cannabinoid receptor 1 (Rattus norvegicus, UniProt P20272), sequence (P20272 whole entry): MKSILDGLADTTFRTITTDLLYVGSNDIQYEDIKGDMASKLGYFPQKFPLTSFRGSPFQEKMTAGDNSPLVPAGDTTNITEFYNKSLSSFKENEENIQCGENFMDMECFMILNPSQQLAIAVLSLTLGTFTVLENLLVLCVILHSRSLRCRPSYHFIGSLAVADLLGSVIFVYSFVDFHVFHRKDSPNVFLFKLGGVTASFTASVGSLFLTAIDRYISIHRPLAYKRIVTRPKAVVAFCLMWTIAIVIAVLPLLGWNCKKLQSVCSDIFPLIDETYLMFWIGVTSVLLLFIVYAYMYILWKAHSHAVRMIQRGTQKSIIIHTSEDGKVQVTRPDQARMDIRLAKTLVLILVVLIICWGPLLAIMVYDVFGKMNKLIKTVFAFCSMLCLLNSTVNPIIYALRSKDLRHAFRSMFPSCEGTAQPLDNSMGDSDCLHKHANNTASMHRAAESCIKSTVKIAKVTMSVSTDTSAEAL

[9] = Volume of distribution at steady state in rat at 1 mg/kg, iv or 2 mg/kg, po; type: ADME, organism-based; details: in vivo, read-out: Vdss
[10] = Plasma concentration in rat at 1 mg/kg, iv at 2 hrs; type: ADME, organism-based; set-up: dose 1 mg/kg, route intravenous
[11] = Brain concentration in rat at 1 mg/kg, iv at 0.25 h; type: ADME, organism-based; set-up: dose 1 mg/kg, route intravenous; details: read-out: Activity
[12] = Plasma concentration in rat at 1 mg/kg, iv at 0.25 h; type: ADME, organism-based; set-up: dose 1 mg/kg, route intravenous
[13] = Half life in rat at 1 mg/kg, iv or 2 mg/kg, po; type: ADME, organism-based; details: in vivo
[14] = Plasma concentration in rat at 1 mg/kg, iv at 1 h; type: ADME, organism-based; set-up: dose 1 mg/kg, route intravenous
[15] = Brain concentration in rat at 1 mg/kg, iv at 2 hrs; type: ADME, organism-based; set-up: dose 1 mg/kg, route intravenous; details: read-out: Activity
[16] = Plasma clearance in rat at 1 mg/kg, iv or 2 mg/kg, po; type: ADME, organism-based

Cannabinoid receptor 1 (Homo sapiens, UniProt P21554), sequence (P21554 whole entry): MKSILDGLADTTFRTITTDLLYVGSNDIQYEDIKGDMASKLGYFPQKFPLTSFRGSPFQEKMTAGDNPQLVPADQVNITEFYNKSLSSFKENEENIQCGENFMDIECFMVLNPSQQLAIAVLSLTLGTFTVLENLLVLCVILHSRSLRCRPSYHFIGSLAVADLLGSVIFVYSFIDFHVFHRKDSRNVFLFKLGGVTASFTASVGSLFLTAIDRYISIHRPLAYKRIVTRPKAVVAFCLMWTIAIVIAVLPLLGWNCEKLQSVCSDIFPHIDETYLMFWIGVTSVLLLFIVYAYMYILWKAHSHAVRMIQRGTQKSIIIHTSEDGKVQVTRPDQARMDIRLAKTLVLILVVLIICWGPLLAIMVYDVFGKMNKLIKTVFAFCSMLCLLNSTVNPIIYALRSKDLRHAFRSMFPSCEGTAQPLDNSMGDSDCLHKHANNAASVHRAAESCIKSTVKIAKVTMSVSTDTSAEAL

SMILES | IC50 (Cannabinoid receptor 1 [1]) [nM] | IC50 (Cannabinoid receptor 2) [nM] | further results
C[C@H](NS(=O)(=O)c1cccc(Cl)c1Cl)[C@@H](Cc1ccc(Cl)cc1)c1cccc(C#N)c1 | 10.7 | 202 | –
C[C@@H]([C@@H](Cc1ccc(Cl)cc1)c1cccc(C#N)c1)N(C)S(C)(=O)=O | > 2000 | > 2000 | –
C[C@H](NC(=O)c1cc(Cl)cc(Cl)c1)[C@@H](Cc1ccc(Cl)cc1)c1cccc(C#N)c1 | 282 | 181 | –
CCCCS(=O)(=O)N[C@@H](C)[C@@H](Cc1ccc(Cl)cc1)c1cccc(C#N)c1 | 75.2 | 1440 | –
C[C@H](NS(=O)(=O)C(C)(C)C)[C@@H](Cc1ccc(Cl)cc1)c1cccc(C#N)c1 | 1680 | > 2000 | –
C[C@H](NC(=O)c1c(Cl)cccc1Cl)[C@@H](Cc1ccc(Cl)cc1)c1cccc(C#N)c1 | 37.2 | 945 | –
C[C@H](NC(=O)Cc1ccccc1)[C@@H](Cc1ccc(Cl)cc1)c1cccc(C#N)c1 | 44.1 | > 2000 | –
C[C@H](NS(=O)(=O)c1c(Cl)cccc1Cl)[C@@H](Cc1ccc(Cl)cc1)c1cccc(C#N)c1 | 29.8 | 283 | –
C[C@H](NS(=O)(=O)c1cc(Cl)cc(Cl)c1)[C@@H](Cc1ccc(Cl)cc1)c1cccc(C#N)c1 | 11.4 | 998 | –
C[C@@H]([C@@H](Cc1ccc(Cl)cc1)c1cccc(C#N)c1)N(C)S(=O)(=O)c1cc(Cl)cc(Cl)c1 | > 2000 | > 2000 | –
C[C@H](NS(=O)(=O)c1ccccc1Cl)[C@@H](Cc1ccc(Cl)cc1)c1cccc(C#N)c1 | 12.3 | 668 | –
C[C@H](NS(=O)(=O)c1cc(C(F)(F)F)cc(C(F)(F)F)c1)[C@@H](Cc1ccc(Cl)cc1)c1cccc(C#N)c1 | 3.2 | 1760 | –
C[C@H](NS(=O)(=O)c1cc(F)cc(F)c1)[C@@H](Cc1ccc(Cl)cc1)c1cccc(C#N)c1 | 5.1 | 1080 | –
C[C@H](NS(=O)(=O)c1cccc(-c2ccccc2)c1)[C@@H](Cc1ccc(Cl)cc1)c1cccc(C#N)c1 | 2.8 | 394 | Cmax [2]: 343 nM; bioavailability [3]: 48%; inhibition in vivo at 3 mg/kg (Rattus norvegicus): 48.9%; Kp at 2 h [4]: 1; concentration at 1 h [5]: 92 nM; Kp at 0.25 h [6]: 0.66; Kp at 1 h [7]: 0.82; IC50 (Cannabinoid receptor 1 [8]): 2.3 nM; Vd [9]: 6.9 L/kg; concentration at 2 h [10]: 54 nM; concentration at 0.25 h [11]: 146 nM; concentration at 0.25 h [12]: 220 nM; half-life [13]: 8.4 h; concentration at 1 h [14]: 113 nM; concentration at 2 h [15]: 54 nM; clearance [16]: 10.6 mL/min/kg
C[C@H](NS(=O)(=O)c1cccc(Cl)c1)[C@@H](Cc1ccc(Cl)cc1)c1cccc(C#N)c1 | 13.9 | 808 | –
C[C@H](NS(=O)(=O)c1ccc(-c2ccccc2)cc1)[C@@H](Cc1ccc(Cl)cc1)c1cccc(C#N)c1 | 23 | 406 | –
C[C@H](NS(=O)(=O)c1cccc2ccccc12)[C@@H](Cc1ccc(Cl)cc1)c1cccc(C#N)c1 | 21.1 | 1120 | –

SMILES | IC50 (Cannabinoid receptor 1 [1]) [nM] | IC50 (Cannabinoid receptor 2) [nM] | further results
C[C@H](NS(=O)(=O)c1ccc(Cl)cc1Cl)[C@@H](Cc1ccc(Cl)cc1)c1cccc(C#N)c1 | 7.1 | 301 | –
C[C@H](NS(=O)(=O)Cc1ccccc1)[C@@H](Cc1ccc(Cl)cc1)c1cccc(C#N)c1 | 20.9 | > 2000 | –
C[C@H](NS(=O)(=O)Cc1ccccc1Cl)[C@@H](Cc1ccc(Cl)cc1)c1cccc(C#N)c1 | 16 | 1920 | –
C[C@H](NS(=O)(=O)Cc1ccc(Cl)cc1)[C@@H](Cc1ccc(Cl)cc1)c1cccc(C#N)c1 | 15.4 | 1760 | –
C[C@H](NS(=O)(=O)CCc1ccccc1)[C@@H](Cc1ccc(Cl)cc1)c1cccc(C#N)c1 | 19.3 | 904 | –
C[C@H](NC(=O)CCc1ccccc1)[C@@H](Cc1ccc(Cl)cc1)c1cccc(C#N)c1 | 38.3 | 1370 | –
C[C@H](NS(=O)(=O)/C=C/c1ccccc1)[C@@H](Cc1ccc(Cl)cc1)c1cccc(C#N)c1 | 41.8 | 1080 | –
C[C@H](NC(=O)c1ccccc1)[C@@H](Cc1ccc(Cl)cc1)c1cccc(C#N)c1 | 845 | 1910 | –
C[C@H](NS(=O)(=O)c1cc(Cl)ccc1Cl)[C@@H](Cc1ccc(Cl)cc1)c1cccc(C#N)c1 | 7.4 | 498 | –
C[C@H](NS(=O)(=O)c1ccc2ccccc2c1)[C@@H](Cc1ccc(Cl)cc1)c1cccc(C#N)c1 | 15 | 1090 | –
C[C@H](NS(=O)(=O)Cc1cccc(Cl)c1)[C@@H](Cc1ccc(Cl)cc1)c1cccc(C#N)c1 | 53.5 | 2000 | –
C[C@H](NS(=O)(=O)c1cc(Cl)c(Cl)cc1Cl)[C@@H](Cc1ccc(Cl)cc1)c1cccc(C#N)c1 | 16 | 622 | –
C[C@H](NS(=O)(=O)c1ccccc1)[C@@H](Cc1ccc(Cl)cc1)c1cccc(C#N)c1 | 9.7 | 1490 | –
C[C@H](NS(=O)(=O)c1ccc(Cl)cc1)[C@@H](Cc1ccc(Cl)cc1)c1cccc(C#N)c1 | 21.7 | 454 | –
C[C@H](NS(C)(=O)=O)[C@@H](Cc1ccc(Cl)cc1)c1cccc(C#N)c1 | > 2000 | > 2000 | –
Cc1c(C(=O)NN2CCCCC2)nn(-c2ccc(Cl)cc2Cl)c1-c1ccc(Cl)cc1 [RIMONABANT] | – | – | inhibition in vivo at 3 mg/kg (Rattus norvegicus): 97.9%
